The source of these data is publication PMC6155162, “Identification of mesothelioma-specific sialylated epitope recognized with monoclonal antibody SKM9-2 in a mucin-like membrane protein HEG1” (Scientific Reports, 2018).

Assay [1] deals with SKM9-2. The assay can be described thus: SPR analysis of binding between SKM9-2 and soluble His-tagged minimum epitope peptides (SKMepmin). The following applies: for Kd: His-tagged SKMepmin secreted from transfected HEK293T immobilized on Ni2+-binding sensor chip NTA, analyte 5 µg/mL SKM9-2, running buffer 10 mM HEPES pH 8.1, 150 mM NaCl, 0.005% Tween-20, 50 µM EDTA, read-out: KD (M), dissociation constant; for association rate between SKM9-2 and epitope peptide (in words) / dissociation rate between SKM9-2 and epitope peptide (in words): analyte 5 µg/mL SKM9-2, change caused by the substitution; for affinity of SKM9-2 in contrast to SKMepmin3 (in words): analyte 5 µg/mL SKM9-2, ligand on sensor chip NTA. On the procedure:
Figure 5 SPR analysis of the binding kinetics between SKM9-2 and mutants of minimum epitope. A soluble His-tagged mutant of minimum epitope (SKMepmin) was secreted from transfected HEK293T and immobilized as a ligand on the Ni^2+-binding sensor chip NTA. The upper sensorgrams show the binding kinetics of analyte (5 µg/mL of SKM9-2) to SKMepmins. The control without any peptide is shown as “No peptide” and the negative control peptide cycle is shown as “Control peptide”. The glycan-digested SKMepmin3 that was treated with Neuraminidase A and O-Glycosidase was used as the negative control peptide. The dissociation constant in the lower bar graph was calculated using the manufacturer’s instructions. RU, response units; Signal sequence, the artificial signal sequence (MAPLLLLLLPLLLLPPAAP).
Figure 7 SPR analysis of bindings of lectin and SKM9-2 to glycosidase-treated SKMepmin3. Purified SKMepmin3 was incubated with α2-3 Neuraminidase S, Neuraminidase A, or Neuraminidase A + O-Glycosidase; and then was immobilized as a ligand on Ni^2+-binding sensor chip NTA. The analytes were used at a concentration of 5 µg/mL. (a) ABA, (b) Jacalin, (c) rACG, (d) SKM9-2. Glycosidase-digested sample was not tested in the experiment with rACG.
Cell lysate or SKMepmin3 was treated with α2-3 Neuraminidase S, α2-3, 6, 8, 9 Neuraminidase A, and O-Glycosidase (New England Biolabs Japan, Tokyo, Japan) in 50 mM sodium phosphate (pH 7.5) containing 1% Nonidet P-40, according to the manufacturer’s instructions. The cell lysate sample was resolved by 4–15% or 6% SDS-PAGE under reducing conditions and detected by western blotting using SKM9-2. The analysis of the SKMepmin3 sample was performed by SPR.
The binding of SKM9-2 or lectin to SKMepmin was measured by SPR analysis. SKMepmin was diluted with a running buffer (10 mM HEPES buffer (pH 8.1) containing 150 mM NaCl and 0.005% Tween-20), flowed on Ni^2+-binding sensor chip NTA (GE Healthcare), and affinity-bound through His-tag as a ligand on the sensor chip. Binding analysis of SKM9-2 was performed in a running buffer containing 50 µM EDTA. A non-treated flow cell was used as a reference cell. SKM9-2, anti-sialyl Lewis^X (CSLEX1, Becton, Dickinson and Company Japan, Tokyo, Japan), rACG (Wako Pure Chemical Industries), biotinylated ABA (J-Oil Mills, Inc., Tokyo, Japan), or biotinylated Jacalin (Vector Laboratories, Inc., Burlingame, CA, USA) (each 5 µg/mL) was injected as an analyte with the running buffer. As a regeneration buffer, 350 mM EDTA was used. The dissociation constant was calculated using the manufacturer’s instructions.
A general note: In SPR one partner is held on a chip, and binding of the other changes the refractive index at the surface.

The test system of assay [2] is SKM9-2. Briefly: Western blotting using SKM9-2 of HEG1 truncated mutants and epitope-fused GPI-anchor proteins. It is filed as binding. The following applies: cell lysates of transfected HEK293T, SDS-PAGE under reducing conditions, 1 µg/mL SKM9-2. From the text:
Figure 1 SKM9-2 binding to truncated mutants of HEG1. Schematics of full-length HEG1 (Full) and the truncated mutants are indicated on the left side and the results of western blotting using SKM9-2 are shown on the right side. Truncated amino acid position, which is based on a full-length variant of HEG1 containing exon 6, is shown as a number in the schematic of domain structure. The region of the SKM9-2 epitope is shown as a red square. […] SLURP GPI-anchor protein[18] was used as a fused GPI-anchor protein (violet square). The terminal sequences of the HEG1 peptide are shown in the western blot lane. The samples were resolved by 6% SDS-PAGE (a and b) or 4–15% SDS-PAGE (c) under reducing conditions and were detected by western blotting using SKM9-2. Cyt, cytoplasmic domain; EGFs, EGF related domains; Ser/Thr, serine/threonine rich region; SLURP, secreted lymphocyte antigen-6/urokinase-type plasminogen activator receptor-related peptide; SP, signal peptide; TM, transmembrane domain. Full-length blots are presented in Supplementary Fig. S7.
Figure 2 Epitope mapping of SKM9-2. Schematic of epitope peptides (left side) and western blots resolved by 4–15% SDS-PAGE (right side) are shown. The HEG1 peptide sequences are indicated in the western blot lane. Each epitope peptide was fused with a signal peptide (dashed line square) and a SLURP GPI-anchor protein (violet square). Full-length blots are presented in Supplementary Fig. S8.
Figure 3 Alanine scanning of SKM9-2 epitope. […] Cell lysates of transfected HEK293T (upper panel) or transfected ACC-MESO1 (lower panel) were resolved by 4–15% SDS-PAGE and analyzed by western blotting using SKM9-2. (b) S897A mutant of FLAG-tagged HEG1 in HEK293T was resolved by 4–15% SDS-PAGE and analyzed by western blotting using SKM9-2 (upper panel) or anti-FLAG mAb (lower panel). Native HEG1 in ACC-MESO4 and FLAG-tagged HEG1 without mutation in HEK293T were used as controls. Full-length blots are presented in Supplementary Fig. S9.
Sequences of tested HEG1 are shown in Supplementary Dataset. Full-length HEG1 cDNA was synthesized from total RNA purified with TRIzol reagent (Thermo Fisher Scientific) from ACC-MESO-4, using an oligo dT primer and SuperScript II RNase H reverse transcriptase (Thermo Fisher Scientific). cDNA encoding the HEG1 open reading frame was amplified by PCR using PrimeSTAR HS DNA Polymerase (Takara Bio Inc., Shiga, Japan). The HEG1 cDNA was cloned and inserted into the pcDNA3.1(−) mammalian expression vector (Thermo Fisher Scientific). For analyses of N-terminal truncation, we inserted mutants into pFLAG-CMV1 (Sigma-Aldrich Japan K.K., Tokyo, Japan). For analyses of C-terminal deletion lacking the transmembrane domain, we used mutants that were fused with a GPI-anchor protein, SLURP1-gpi[18], in pcDNA3.1(+) (Thermo Fisher Scientific) (Supplementary Dataset). Alanine substituted mutants were prepared using site directed mutagenesis. To produce a soluble epitope peptide, a modified HEG1 signal peptide and a C-terminal tag containing the FLAG tag plus a polyhistidine sequence were used in the mammalian expression vector pEF-BOS[39] (Supplementary Dataset). The plasmid constructs were transfected with Lipofectamine 3000 (Thermo Fisher Scientific). The HEG1 peptide-expressing 293 H clone was obtained by selection with geneticin (Thermo Fisher Scientific).
Monolayer cells were solubilized with 20 mM Tris buffer (pH 8.0) containing 1% SDS, 1 mM phenylmethylsulfonyl fluoride, 125 mU/mL Benzonase Nuclease (Merck Millipore Co., Tokyo, Japan) (25 µL/cm^2 culture surface area). The lysate (10 µL/lane) was resolved by SDS-PAGE under reducing conditions using 6% polyacrylamide gels or 4–15% precast gels (Bio-Rad Laboratories Inc., Hercules, CA, USA). […]
Background: Immunoblotting shows a protein as a band on a membrane.

Broadly, the Kd is the concentration at which binding is half-saturated. As to “MAPLLLLLLPLLLLPPAAPGGAKAPSLVSLPAGGDYKDDDDKHHHHHHHH [SKMepmin4]”, at SKM9-2 [1], the Kd was 1.15e-08 M; the “association rate between SKM9-2 and epitope peptide (in words)” value was “decreased”; the “affinity of SKM9-2 in contrast to SKMepmin3 (in words)” value (“affinity of SKM9-2 in contrast” for short) is “decreased”. In the case of “MAPLLLLLLPLLLLPPAAPGGTKAPSLVSLPAGGDYKDDDDKHHHHHHHH [SKMepmin5]”, at SKM9-2 [1], the Kd worked out at 2.9e-09 M; the “association rate between SKM9-2 and epitope peptide (in words)” value was “hardly influenced”; the “dissociation rate between SKM9-2 and epitope peptide (in words)” value was “hardly influenced”; the “affinity of SKM9-2 in contrast” value was “restored”.

“MAPLLLLLLPLLLLPPAAPGGSKSPSLVSLPTGGDYKDDDDKHHHHHHHH [SKMepmin1]”: the dissociation constant Kd at SKM9-2 [1] is 8.75e-09 M. Regarding “7.62: 887-EKVITESKSPSLVSLPTEST-906 -SLURP GPI”, the “recognition by SKM9-2 upon western blot analysis” value (“recognition” for short) in the assay on SKM9-2 [2] is “clearly detected”. “MAPLLLLLLPLLLLPPAAPGGSKAPTLVSLPAGGDYKDDDDKHHHHHHHH [SKMepmin7]”: on SKM9-2 [1], the dissociation constant Kd was 6.17e-08 M and the “affinity of SKM9-2 in contrast” value was “further reduced”. With “MAPLLLLLLPLLLLPPAAPGGSKAPALVSLPAGGDYKDDDDKHHHHHHHH [SKMepmin6]”, on SKM9-2 [1], the Kd amounted to 4.2e-08 M; the “dissociation rate between SKM9-2 and epitope peptide (in words)” value is “increased”; the “affinity of SKM9-2 in contrast” value is reported as “decreased”. The like results for “MAPLLLLLLPLLLLPPAAPGGSKAPSLVTLPAGGDYKDDDDKHHHHHHHH [SKMepmin9]” were, in that order, 6.38e-09 M, “increased” and “restored”. As to “MAPLLLLLLPLLLLPPAAPGGSKAPSLVSLPTGGDYKDDDDKHHHHHHHH [SKMepmin2]”, on SKM9-2 [1], the dissociation constant (Kd) stood at 6.22e-09 M; the “association rate between SKM9-2 and epitope peptide (in words)” value is reported as “increased”.

Take “7.626: 887-EKVITESKSPSLVSLP-902 -SLURP GPI”: the “recognition” value in the assay with SKM9-2 [2] is listed as “weakly recognized”.

For “7.627: 887-EKVITESKSPSLVS-900 -SLURP GPI”, the “recognition” value in the assay with SKM9-2 [2] is given as “not bound”. Consider “MAPLLLLLLPLLLLPPAAPGGSKAPSLVALPAGGDYKDDDDKHHHHHHHH [SKMepmin8]”, for which, at SKM9-2 [1], the Kd turned out to be 3.25e-08 M; the “dissociation rate between SKM9-2 and epitope peptide (in words)” value was “increased”; the “affinity of SKM9-2 in contrast” value is “decreased”.

B1: 2.2 kb: FLAG-tagged N-terminal deletion mutant hHEG1 (712-1481) (protein)
chain: MSALLILALVGAAVADYKDDDDKLAAANSSIDLSSYDGEYAQPSTESPVLHTSNLPSYTPTINMPNTSVVLDTDAEFVSDSSSSSSSSSSSSSSSSSSSSGPPLPLPSVSQSHHLFSSILPSTRASVHLLKSTSDASTPWSSSPSPLPVSLTTSTSAPLSVSQTTLPQSSSTPVLPRARETPVTSFQTSTMTSFMTMLHSSQTADLKSQSTPHQEKVITESKSPSLVSLPTESTKAVTTNSPLPPSLTESSTEQTLPATSTNLAQMSPTFTTTILKTSQPLMTTPGTLSSTASLVTGPIAVQTTAGKQLSLTHPEILVPQISTEGGISTERNRVIVDATSGLIPLTSVPTSAKEMTTKLGVTAEYSPASRSLGTSPSPQTTVVSTAEDLAPKSATFAVQSSTQSPTTLSSSASVNSCAVNPCLHNGECVADNTSRGYHCRCPPSWQGDDCSVDVNECLSNPCPSTAMCNNTQGSFICKCPVGYQLEKGICNLVRTFVTEF
In the case of B1, the “recognition” value with SKM9-2 [2] is listed as “recognized”.

B2: 2 kb: FLAG-tagged N-terminal deletion mutant hHEG1 (771-1481) (protein)
chain: MSALLILALVGAAVADYKDDDDKLAAANSSIDLSSGPPLPLPSVSQSHHLFSSILPSTRASVHLLKSTSDASTPWSSSPSPLPVSLTTSTSAPLSVSQTTLPQSSSTPVLPRARETPVTSFQTSTMTSFMTMLHSSQTADLKSQSTPHQEKVITESKSPSLVSLPTESTKAVTTNSPLPPSLTESSTEQTLPATSTNLAQMSPTFTTTILKTSQPLMTTPGTLSSTASLVTGPIAVQTTAGKQLSLTHPEILVPQISTEGGISTERNRVIVDATSGLIPLTSVPTSAKEMTTKLGVTAEYSPASRSLGTSPSPQTTVVSTAEDLAPKSATFAVQSSTQSPTTLSSSASVNSCAVNPCLHNGECVADNTSRGYHCRCPPSWQGDDCSVDVNECLSNPCPSTAMCNNTQGSFICKCPVGYQLEKGICNLVRTFVTEFKLKRTFLNTTVEKHSDLQEVENEITKTLNMCFSALPSYIRSTVHASRESNAVVISLQTTFSLASN
Consider B2, for which the “recognition” value in the assay with SKM9-2 [2] is reported as “recognized”.

B3: 3 kb: FLAG-tagged N-terminal deletion mutant hHEG1 (285-1481) (protein)
chain: MSALLILALVGAAVADYKDDDDKLAAANSSIDLSWLHFYRTAASSPLLDLSSSSESTEKLNNSTGLQSSSVSQTKTMHVATVFTDGGPRTLRSLTVSLGPVSKTEGFPKDSRIATTSSSVLLSPSAVESRRNSRVTGNPGDEEFIEPSTENEFGLTSLRWQNDSPTFGEHQLASSSEVQNGSPMSQTETVSRSVAPMRGGEITAHWLLTNSTTSADVTGSSASYPEGVNASVLTQFSDSTVQSGGSHTALGDRSYSESSSTSSSESLNSSAPRGERSIAGISYGQVRGTAIEQRTSSDHTDHTYLSSTFTKGERALLSITDNSSSSDIVESSTSYIKISNSSHSEYSSFFHAQTERSNISSYDGEYAQPSTESPVLHTSNLPSYTPTINMPNTSVVLDTDAEFVSDSSSSSSSSSSSSSSSSSSSSGPPLPLPSVSQSHHLFSSILPSTRASVHLLKSTSDASTPWSSSPSPLPVSLTTSTSAPLSVSQTTLPQSSSTPV
For the molecule B3, in the assay with SKM9-2 [2], the “recognition” value is on record as “recognized”.
